# Where “and” joins values, the source holds several entries; their conditions need not be identical. Equal entries are not always repeated.
# Columns and labels:
# [1] = test system: isolated human erythrocytes; test: in vitro; assay type: cell-based
# Summary of the method: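 Pooled human red cells, washed and diluted from a 0.22% stock suspension in TBS pH 7.4, were shaken with two-fold dilutions (1000 to 0.48 µg/ml) for 1 h at 37 °C. Released hemoglobin in the supernatant was read at OD405. EC50 came from a four-parameter logistic fit, with melittin as positive control.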
# [2] = Cytotoxicity colorimetric assay, HepG2; assay type: cell-based, human; conditions: human, HepG2 cells, one hour in serum-free media
# Summary of the method: (§1)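 HepG2 cells (3×10^4/well, MEM + 10% FBS) and NIH/3T3 cells (2×10^4/well, DMEM + 10% BCS) were exposed to compound for 1 h in serum-free medium. Viability read by tetrazolium-to-formazan bioreduction after return to serum medium; EC50 from a four-parameter logistic fit.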
# HepG2 cells = test: Cytotoxicity colorimetric assay, HepG2; assay type: cell-based, human; conditions: one hour in serum-free media
# Summary of the method: as §1
# [3] = Cytotoxicity colorimetric assay, NIH/3T3; assay type: cell-based, mouse; conditions: mouse, NIH/3T3 cells, one hour in serum-free media
# Summary of the method: as §1
# NIH/3T3 cells = test: Cytotoxicity colorimetric assay, NIH/3T3; assay type: cell-based, mouse; conditions: one hour in serum-free media
# Summary of the method: as §1
# Unfractionated heparin = test: aPTT clotting assay, UFH 0.4 U/mL in plasma (Example 10); assay type: biochemical; conditions: unfractionated heparin 0.4 U/mL in plasma; aPTT clotting
# Procedure: aPTT clotting Assay: Unfractionated heparin was mixed with plasma at a final concentration of 0.4 U/mL (or concentration which increases aPTT time to between 120 and 300 seconds). […] The ACL Elite Hemostasis analyzer (Beckman Coulter™) was used to add aPTT reagent (HemosIL SynthASil) to supplemented plasma. Clotting was initiated by addition of CaCl2 and time to clot was recorded.
# UFH [4] = test: In vivo neutralization of unfractionated heparin in the rat; conditions: UFH 100 U/kg IV, 1 mg/kg dose IV
# Procedure: The male Sprague-Dawley rats used in this study were obtained from Charles River Laboratories, Raleigh. They were nine-weeks-old at the start of the study and their weights ranged from 279-334 g. Rats were pre-treated with UFH administered by IV injection in a tail vein at 100 U/kg in a dose volume of 1 mL/kg. The rats were then treated with a single IV injection of saline, protamine or the appropriate test compound at doses of 0.25, 0.5 and 1.0 mg/kg. All treatments were dosed in a volume of 1 mL/kg. Blood was collected via the orbital sinus from three rats per group at the following time points after treatment: predose, 1, 3, 10, 30 and 60. At each time point, 1 mL of blood was collected from each animal into a single tube. The blood was analyzed using an AMEX Destiny Plus Coagulation Analyzer for activated partial thromboplastintime (APTT) and anti-Factor Xa.
# enoxaparin [5] = test: In vivo neutralization of enoxaparin in the rat; conditions: compared with protamine
# Procedure: Compounds were tested for their ability to neutralize enoxaparin coagulation inhibition in rats. Male Sprague-Dawley rats were used in this study (Charles River Laboratories). They were ten-weeks-old at the start of the study and their weights ranged from 319-362 g. Enoxaparin (2 mg/kg) was administered by IV injection to groups of six rats. After 3 min, saline, protamine or a test compound was administered by IV injection. Blood was collected before dosing with enoxaparin, and at 1, 3, 10, 30 and 60 min after dosing with the standard and test compounds. All treatments were dosed in a volume of 1 mL/kg. Blood was collected via the orbital sinus from three rats per group. At each time point, 1 mL of blood was collected from each animal into a single tube. The blood was analyzed using an AMEX Destiny Plus Coagulation Analyzer for activated partial thromboplastin time (APTT) and anti-Factor Xa (low-molecular weight).
# enoxaparin [6] = test: Enoxaparin-extended bleeding times, rat tail transection model; assay type: in vivo
# Procedure: Studies have now been done to examine effects on extended bleeding times caused by enoxaparin treatment. Male Sprague Dawley rats (Charles River) were administered 2 mg/kg enoxaparin by IV injection in the tail vein, followed 3 minutes later by test agent (IV, tail vein) at 2 and 5 mg/kg doses. Tails were then rapidly transected and bleeding time onto an absorbant pad was determined. Enoxaparin alone (no antagonist) extends bleeding time from 11 to 24 seconds.
# fondaparinux [7] = test: In vivo neutralization of fondaparinux in the rat; conditions: fondaparinux 0.5 mg/kg IV, test agent 2 and 5 mg/kg IV
# Procedure: Compounds were selected to test fondaparinux neutralization in vivo. Rats were pre-treated with fondaparinux administered by IV injection at 0.5 mg/kg. The rats were then treated with a single IV injection of saline, protamine or the PMX compound. Blood was collected via the orbital sinus from three rats per group at the following time points: pre-dose, 1, 3, 10, 30 and 60 min. Plasma samples were prepared for analysis of anti-factor Xa activity using an AMEX Destiny Plus Coagulation Analyzer.
# blood pressure = test: Hemodynamic responses in the anesthetized rat; assay type: in vivo
# From the text: As a key safety issue for cationic compounds is reduction in blood pressure shortly after administration. To address this hemodynamic issue, a medicinal chemistry strategy with literature precedence of introducing carboxylic acid functionality was applied to the salicylamide series of compounds. […] Surgically prepared animals were purchased from Charles River Laboratories, Raleigh, N.C. Animals were anesthetized on the day of experiment with isoflurane (1.8-4%). Blood pressure and heart rate data were collected on a Grass Polygraph recorder. The test articles, vehicle or protamine dosing preparations were administered once to each rat by a 10 minute intravenous infusion three minutes following a single intravenous injection of heparin (50 U/kg). Each animal received a dose volume of 2.0 mL/kg. Blood pressure was recorded prior to treatment for approximately 1 minute and immediately following heparin, immediately following vehicle, test articles or protamine and at 5, 15, 30, and 60 minutes following dosing. The doses of test agent were either 8 mg/kg or 16 mg/kg. The differences in hemodynamic effect at 16 mg/kg were especially profound (FIG. 5).
# [8] = Coagulation properties via ROTEM; conditions: at fully efficacious doses
# UFH [9] = test: FXa amidolytic assay (Example 10), UFH; conditions: read-out: Heparin FXa uM EC50; UFH 0.03 units/mL; human antithrombin, bovine Factor Xa
# Procedure: (§2) Two μl of test agent are added (range between 0.01 and 23 ug/ml) and incubated for 5 minutes at 23° C. Bovine Factor Xa was added to a final concentration of 0.636 nkat/mL and incubated for a further 10 minutes at 23° C.
# tinzaparin = test: FXa amidolytic assay (Example 10), tinzaparin; conditions: read-out: Tinzap FXa EC50; tinzaparin 0.1 ug/ml; human antithrombin, bovine Factor Xa
# Procedure: as §2
# fondaparinux [10] = test: FXa amidolytic assay (Example 10), fondaparinux
# Procedure: as §2
compound,measurement,setting,value
COc1ccc(NC(=O)[C@@H](CCCNC(=N)N)NC(=O)c2cc(NC(=O)[C@@H](CCCNC(=N)N)NC(=O)c3cc(NC(=O)[C@@H](CCCNC(=N)N)NC(=O)c4cc(NC(=O)[C@H](N)CCCNC(=N)N)ccc4OCC(=O)O)ccc3OC)ccc2OC)cc1C(N)=O [Compound 283],hemolysis and cytotoxicity (summary),[1],non-hemolytic and low cytotoxicity
same,EC50,"[1]; Homo sapiens, Erythrocyte, 1 h, human RBC, 1 hour at 37° C., read-out: Hemolysis EC50",> 1000 µg/mL
same,EC50 at 1 h,[2],1000 µg/mL
same,Cytotoxicity HepG2 EC50,HepG2 cells,>1000 µg/mL
same,EC50 at 1 h,[3],1000 µg/mL
same,Cytotoxicity 3T3 EC50,NIH/3T3 cells,>1000 µg/mL
same,EC50,Unfractionated heparin,1.39 µM and 1.84 µM
same,neutralization of UFH activity in aPTT assays,UFH [4],complete neutralization
same,in vivo efficacy versus LMWH by anti-factor Xa activity (summary),enoxaparin [5],superior to protamine
same,in vivo efficacy versus LMWH by bleeding time (summary),enoxaparin [6]; compared with protamine,superior to protamine
same,neutralization of prolonged bleeding times,"enoxaparin [6]; rat, enoxaparin 2 mg/kg IV, test agent 2 mg/kg IV",completely neutralized
same,reduction of Factor Xa (anti-factor Xa) levels after fondaparinux,fondaparinux [7],lack of effectiveness
same,hemodynamic response profile,"blood pressure; anesthetized rat, 8 or 16 mg/kg 10 minute IV infusion after heparin 50 U/kg",superior to protamine
same,hemodynamic liabilities (summary),"blood pressure; rat, in vivo",reduced hemodynamic liabilities
same,coagulation properties via ROTEM,[8],normal coagulation properties at fully efficacious doses
same,EC50,UFH [9],0.101 µM
same,EC50,tinzaparin,0.124 µM and 0.096 µM
same,Potent LMWH-antagonists with superior anti-fondaparinux activity (summary),fondaparinux [10],superior anti-fondaparinux activity
same,EC50,"fondaparinux [10]; read-out: Fondap FXa EC50, fondaparinux 0.02 μg/mL, human antithrombin, bovine Factor Xa",0.575 µM and 0.53 µM and 0.452 µM

# From patent US20110178104A1, “Anti-Heparin Compounds” (POLYMEDIX INC., priority 2010, published 2011)
